According to ChEMBL document CHEMBL3301562, “MMV Box screening against Plasmodium falciparum protein kinases and aminoacyl tRNA synthetases”:
pIC50: −log10 of the molar value.

What was measured:
Assay type in all cases: functional
[1] = biological target: T1, Cdk-related protein kinase 6 (Plasmodium falciparum, UniProt O77239); assay: Final concentrations were 1.5 uM ATP, 5 mM MnCl2, and 15 ug/ml PK6 in a buffer of 100 mM Tris-HCl (pH 7.5). 50 ug/mL MBP was provided as the substrate; 10 uM staurosporine was used as a control inhibitor. Incubation time was 3 hours and 40 minutes.The catalytic activity of each kinase was considered proportional to ATP consumed, as determined from measurements of residual [ATP] with the luciferase-based reagent Kinase-Glo (Promega) following incubation. Luminescence (proportional to residual [ATP]) was measured on the plate readers FLx800 (BioTek Instruments, Winooski, VT, USA) and MicroBeta2.
T1 sequence (O77239 whole entry): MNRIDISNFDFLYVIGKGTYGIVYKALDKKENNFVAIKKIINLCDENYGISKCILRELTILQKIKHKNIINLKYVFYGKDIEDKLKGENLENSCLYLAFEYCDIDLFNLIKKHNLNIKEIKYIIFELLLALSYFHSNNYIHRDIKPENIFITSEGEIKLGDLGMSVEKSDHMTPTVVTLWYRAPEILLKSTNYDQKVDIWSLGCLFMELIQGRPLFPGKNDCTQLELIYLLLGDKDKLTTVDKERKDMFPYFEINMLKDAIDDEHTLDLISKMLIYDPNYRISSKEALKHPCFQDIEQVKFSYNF

[2] = biological target: T2, Putative uncharacterized protein pk7 (Plasmodium falciparum, UniProt O96214); assay: Final concentrations were 1 uM ATP, 2 mM DTT, 20 mM MgCl2, 2 mM MnCl2, 0.01% BSA, and 6 ug/ml PK7, in a buffer of 20 mM Tris-HCl (pH 7.5). The enzyme itself was the only substrate present (since autophosphorylation occurs); 100 uM 1NA-PP1 was used as a control inhibitor. Incubation time was 3 hours.
T2 sequence (O96214 whole entry): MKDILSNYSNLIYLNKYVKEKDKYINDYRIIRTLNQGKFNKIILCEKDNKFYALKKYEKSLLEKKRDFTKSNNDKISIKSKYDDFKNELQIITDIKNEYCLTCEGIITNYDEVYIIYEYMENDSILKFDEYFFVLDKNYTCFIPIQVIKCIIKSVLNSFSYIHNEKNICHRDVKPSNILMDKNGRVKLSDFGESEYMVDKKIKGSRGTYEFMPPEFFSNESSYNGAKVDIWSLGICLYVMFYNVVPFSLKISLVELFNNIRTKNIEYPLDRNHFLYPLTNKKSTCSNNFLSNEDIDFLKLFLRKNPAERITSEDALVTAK

[3] = biological target: T3, Mitogen-activated protein kinase (Plasmodium falciparum, UniProt Q25917); assay: Final concentrations were 1 uM ATP, 0.5 mM DTT, 1 mM MgCl2, 0.5 mg/mL BSA, and 10 ug/ml MAP2 in a buffer of 50 mM HEPES (pH 7.0). 0.5 mg/mL histone III-S served as the substrate (13); 100 uM AMP-PNP, an ATP analog, was used as a control inhibitor. Incubation time was 4 hours.
T3 sequence (Q25917 whole entry): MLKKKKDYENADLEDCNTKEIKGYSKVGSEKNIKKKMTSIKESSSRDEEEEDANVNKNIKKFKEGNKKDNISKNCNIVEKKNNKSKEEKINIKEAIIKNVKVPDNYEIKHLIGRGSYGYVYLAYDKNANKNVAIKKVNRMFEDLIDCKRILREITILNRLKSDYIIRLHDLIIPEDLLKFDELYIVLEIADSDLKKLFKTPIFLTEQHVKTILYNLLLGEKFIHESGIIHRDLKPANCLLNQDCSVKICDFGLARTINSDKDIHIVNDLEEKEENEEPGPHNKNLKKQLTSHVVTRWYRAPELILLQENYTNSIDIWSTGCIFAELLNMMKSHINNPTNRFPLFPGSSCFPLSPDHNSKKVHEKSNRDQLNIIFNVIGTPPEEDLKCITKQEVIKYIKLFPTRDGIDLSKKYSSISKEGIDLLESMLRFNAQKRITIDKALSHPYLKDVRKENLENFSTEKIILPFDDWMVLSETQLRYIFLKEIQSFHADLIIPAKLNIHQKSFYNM

[4] = biological target: Calcium-dependent protein kinase 1 (Plasmodium falciparum, UniProt P62344); assay: MMV: CDPK1 Protein kinase inhibition assay using recombinant PfCDPK1, syntide 2 peptide substrate, ATP and KinaseGlo to measure % inhibition at 1 uM MMV box compound.
[5] = biological target: T4, Calcium-dependent protein kinase 4 (Plasmodium falciparum (isolate 3D7), UniProt Q8IBS5); assay: MMV: CDPK4 Protein kinase inhibition assay using recombinant PfCDPK4, syntide2 peptide substrate, ATP and KinaseGlo to measure % inhibition at 1 uM MMV box compound.
T4 sequence (Q8IBS5 whole entry): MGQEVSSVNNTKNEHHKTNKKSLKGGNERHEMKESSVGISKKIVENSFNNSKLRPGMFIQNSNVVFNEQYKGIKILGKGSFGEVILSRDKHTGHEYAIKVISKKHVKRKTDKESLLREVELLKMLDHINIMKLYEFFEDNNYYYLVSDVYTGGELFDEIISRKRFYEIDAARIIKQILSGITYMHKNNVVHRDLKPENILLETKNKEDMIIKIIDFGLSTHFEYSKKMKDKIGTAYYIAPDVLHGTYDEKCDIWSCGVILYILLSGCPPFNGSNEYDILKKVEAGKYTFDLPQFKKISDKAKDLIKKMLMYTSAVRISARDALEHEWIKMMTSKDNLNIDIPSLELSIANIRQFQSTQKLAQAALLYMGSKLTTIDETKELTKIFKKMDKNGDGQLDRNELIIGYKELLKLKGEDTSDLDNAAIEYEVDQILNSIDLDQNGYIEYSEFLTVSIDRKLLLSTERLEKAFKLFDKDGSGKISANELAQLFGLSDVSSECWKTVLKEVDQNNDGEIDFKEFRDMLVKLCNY

Proline--tRNA ligase = biological target: T5, Proline--tRNA ligase (Plasmodium falciparum (isolate 3D7), UniProt Q8I5R7); assay: MMV: ProRS recombinant Plasmodium falciparum Prolyl-tRNA-synthetase, assay with yeast tRNA, ATP, and proline and 3 uM MMV malaria box compound, assay read out with kinase glo as % inhibition.
T5 sequence (Q8I5R7 whole entry): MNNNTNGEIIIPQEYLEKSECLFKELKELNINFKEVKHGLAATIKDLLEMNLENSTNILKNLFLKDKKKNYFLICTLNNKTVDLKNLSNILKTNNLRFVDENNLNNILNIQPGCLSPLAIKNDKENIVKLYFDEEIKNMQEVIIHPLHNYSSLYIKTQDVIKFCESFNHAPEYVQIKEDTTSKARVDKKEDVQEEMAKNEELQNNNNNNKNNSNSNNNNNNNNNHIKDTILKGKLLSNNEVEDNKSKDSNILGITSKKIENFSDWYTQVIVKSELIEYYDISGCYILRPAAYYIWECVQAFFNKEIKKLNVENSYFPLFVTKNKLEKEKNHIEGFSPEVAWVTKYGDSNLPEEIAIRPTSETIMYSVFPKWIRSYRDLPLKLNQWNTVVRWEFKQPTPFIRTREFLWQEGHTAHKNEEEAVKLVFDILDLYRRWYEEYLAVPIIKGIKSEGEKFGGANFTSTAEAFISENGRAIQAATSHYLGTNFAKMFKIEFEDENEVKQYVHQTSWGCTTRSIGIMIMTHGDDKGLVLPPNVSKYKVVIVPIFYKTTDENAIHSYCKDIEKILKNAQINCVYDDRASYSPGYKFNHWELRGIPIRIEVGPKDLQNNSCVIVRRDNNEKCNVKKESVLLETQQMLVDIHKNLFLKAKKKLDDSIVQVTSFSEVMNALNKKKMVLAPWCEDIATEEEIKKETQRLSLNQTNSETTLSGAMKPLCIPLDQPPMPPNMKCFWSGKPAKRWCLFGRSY

Lysine--tRNA ligase = Lysine--tRNA ligase (Plasmodium falciparum (isolate 3D7), UniProt Q8IDJ8); assay: MMV: KRS recombinant Plasmodium falciparum Lysyl-tRNA-synthetase, assay with yeast tRNA, ATP, and lysine and 3 uM MMV malaria box compound, assay read out with kinase glo as % inhibition.
Sequence of Lysine--tRNA ligase (Q8IDJ8 whole entry): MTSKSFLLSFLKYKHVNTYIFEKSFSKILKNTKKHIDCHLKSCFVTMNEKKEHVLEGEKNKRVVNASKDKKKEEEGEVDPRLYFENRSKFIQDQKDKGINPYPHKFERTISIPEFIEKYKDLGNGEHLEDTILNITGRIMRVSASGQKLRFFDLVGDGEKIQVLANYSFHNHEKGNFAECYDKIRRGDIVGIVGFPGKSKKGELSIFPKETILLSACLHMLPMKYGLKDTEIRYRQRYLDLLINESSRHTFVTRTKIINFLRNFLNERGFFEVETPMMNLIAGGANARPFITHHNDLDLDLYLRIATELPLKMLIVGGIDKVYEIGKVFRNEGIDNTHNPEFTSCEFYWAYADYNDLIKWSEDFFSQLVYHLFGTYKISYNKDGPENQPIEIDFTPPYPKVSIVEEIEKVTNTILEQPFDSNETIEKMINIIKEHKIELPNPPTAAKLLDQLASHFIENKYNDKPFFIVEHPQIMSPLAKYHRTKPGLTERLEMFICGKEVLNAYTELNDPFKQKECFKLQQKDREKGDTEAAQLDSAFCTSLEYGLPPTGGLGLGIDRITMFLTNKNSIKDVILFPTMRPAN

Sequence of Calcium-dependent protein kinase 1 (P62344 whole entry): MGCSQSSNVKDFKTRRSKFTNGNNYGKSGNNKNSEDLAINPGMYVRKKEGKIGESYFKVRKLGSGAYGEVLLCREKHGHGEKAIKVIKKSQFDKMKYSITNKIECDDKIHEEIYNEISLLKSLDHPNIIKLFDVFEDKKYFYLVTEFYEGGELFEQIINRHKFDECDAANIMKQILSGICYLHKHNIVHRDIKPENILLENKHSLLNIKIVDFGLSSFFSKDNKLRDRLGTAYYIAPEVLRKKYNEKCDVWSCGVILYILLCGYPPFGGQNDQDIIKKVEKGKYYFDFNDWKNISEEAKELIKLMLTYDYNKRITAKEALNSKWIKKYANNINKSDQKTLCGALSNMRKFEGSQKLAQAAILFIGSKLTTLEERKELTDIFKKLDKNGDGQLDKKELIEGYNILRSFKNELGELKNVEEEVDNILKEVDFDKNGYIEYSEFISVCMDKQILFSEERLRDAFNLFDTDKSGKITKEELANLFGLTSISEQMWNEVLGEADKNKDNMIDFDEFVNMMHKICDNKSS

Structure (SMILES)	pIC50 [1]	pIC50 [2]	pIC50 [3]	pIC50 [4]	pIC50 [5]	pIC50 (Proline--tRNA ligase)	pIC50 (Lysine--tRNA ligase)
COc1cccc(Cn2c(Oc3ccccc3)nc3c2c(=O)n(C)c(=O)n3C)c1	< 6.00	< 6.00	< 6.00	< 6.00	< 6.00	< 5.60	< 5.60
Cc1sc2ncnc(Sc3nc4ccccc4[nH]3)c2c1C	< 6.00	< 6.00	< 6.00	< 6.00	< 6.00	< 5.60	< 5.60
CN(C)CCNc1cc(-c2ccccc2)nc2ccccc12	< 6.00	< 6.00	< 6.00	< 6.00	< 6.00	< 5.60	< 5.60
COc1ccc(C(=O)C(CCC(CNC(C)(C)C)C(=O)c2ccc(OC)cc2)CNC(C)(C)C)cc1 (configuration not stated)	< 6.00	< 6.00	< 6.00	< 6.00	< 6.00	< 5.60	< 5.60
N=c1n(CCN2CCCCC2)c2ccccc2n1CC(O)c1cccc(Br)c1 (configuration not stated)	< 6.00	< 6.00	< 6.00	< 6.00	< 6.00	< 5.60	< 5.60
Oc1ccc(Cl)cc1CNc1nc2ccccc2[nH]1	< 6.00	< 6.00	< 6.00	< 6.00	< 6.00	< 5.60	< 5.60
COc1nc(Nc2ccc(C(C)C)cc2)nc(OC)n1	< 6.00	< 6.00	< 6.00	< 6.00	< 6.00	< 5.60	< 5.60
O=c1nc(C=Cc2ccc(Cl)cc2)oc2ccccc12	< 6.00	< 6.00	< 6.00	< 6.00	< 6.00	< 5.60	< 5.60
CC1(c2ccccc2)Nc2ccccc2-c2nc3ccccc3n21 (configuration not stated)	< 6.00	< 6.00	< 6.00	< 6.00	< 6.00	< 5.60	< 5.60
CN(C)c1ccc(C(O)(c2ccc(N(C)C)cc2)c2ccc(N(C)C)cc2)cc1 [METHYLROSANILINE]	< 6.00	< 6.00	< 6.00	< 6.00	< 6.00	< 5.60	< 5.60
Oc1ccc(Br)cc1CN1CCN(Cc2cccc(F)c2)CC1	< 6.00	< 6.00	< 6.00	< 6.00	< 6.00	< 5.60	< 5.60
CCN(CC)CCNc1ncnc2c1[nH]c1ccc(Cl)cc12	< 6.00	< 6.00	< 6.00	< 6.00	< 6.00	< 5.60	< 5.60
O=C(NCC1Cc2cccc(-c3ccncc3)c2O1)c1csc2c1CCCC2 (configuration not stated)	< 6.00	< 6.00	< 6.00	< 6.00	< 6.00	< 5.60	< 5.60
CCc1ccc(Nc2cc(C)c3ccc(O)cc3n2)cc1	< 6.00	< 6.00	< 6.00	< 6.00	< 6.00	< 5.60	< 5.60
CC(C)c1ccc(CNCC(O)c2ccccc2)cc1 (configuration not stated)	< 6.00	< 6.00	< 6.00	< 6.00	< 6.00	< 5.60	< 5.60
CCN1CCN(Cc2ccc(NC(=O)c3cc4ccc5cccnc5c4[nH]3)cc2)CC1	< 6.00	< 6.00	< 6.00	< 6.00	< 6.00	< 5.60	< 5.60
CC(C)(C)c1ccc2c(c1)CN(Cc1ccc(Cl)cc1)CO2	< 6.00	< 6.00	< 6.00	< 6.00	< 6.00	< 5.60	< 5.60
CCCc1cc(O)c2c3c(c(=O)oc2c1)CN(C)CC3	< 6.00	< 6.00	< 6.00	< 6.00	< 6.00	< 5.60	< 5.60
Cc1cc(Nc2cccc(F)c2)nc(NCc2ccccc2)n1	< 6.00	< 6.00	< 6.00	< 6.00	< 6.00	< 5.60	< 5.60
Cc1cc(NC(=O)C2c3ccccc3C(=O)N(CC(C)C)C2c2cccs2)no1 (configuration not stated)	< 6.00	< 6.00	< 6.00	< 6.00	< 6.00	< 5.60	< 5.60
CC(C)(C)CC(C)(C)NCC(O)COc1ccc2c(c1)CCC2 (configuration not stated)	< 6.00	< 6.00	< 6.00	< 6.00	< 6.00	< 5.60	< 5.60
